Test results as given in article PMC7581728, “Sapitinib Reverses Anticancer Drug Resistance in Colon Cancer Cells Overexpressing the ABCB1 Transporter” (Frontiers in Oncology, 2020).

Molecular target: T1, ABCB1 (Homo sapiens, UniProt P08183)
T1 construct: ABCB1 transporter in membrane vesicles of High Five insect cells
Assay: vanadate-sensitive ATPase stimulation in ABCB1 membrane vesicles ([…] maximum); also raised [3H]-paclitaxel accumulation in SW620/Ad300 cells
Assay type: biochemical

T1 sequence (P08183 whole entry): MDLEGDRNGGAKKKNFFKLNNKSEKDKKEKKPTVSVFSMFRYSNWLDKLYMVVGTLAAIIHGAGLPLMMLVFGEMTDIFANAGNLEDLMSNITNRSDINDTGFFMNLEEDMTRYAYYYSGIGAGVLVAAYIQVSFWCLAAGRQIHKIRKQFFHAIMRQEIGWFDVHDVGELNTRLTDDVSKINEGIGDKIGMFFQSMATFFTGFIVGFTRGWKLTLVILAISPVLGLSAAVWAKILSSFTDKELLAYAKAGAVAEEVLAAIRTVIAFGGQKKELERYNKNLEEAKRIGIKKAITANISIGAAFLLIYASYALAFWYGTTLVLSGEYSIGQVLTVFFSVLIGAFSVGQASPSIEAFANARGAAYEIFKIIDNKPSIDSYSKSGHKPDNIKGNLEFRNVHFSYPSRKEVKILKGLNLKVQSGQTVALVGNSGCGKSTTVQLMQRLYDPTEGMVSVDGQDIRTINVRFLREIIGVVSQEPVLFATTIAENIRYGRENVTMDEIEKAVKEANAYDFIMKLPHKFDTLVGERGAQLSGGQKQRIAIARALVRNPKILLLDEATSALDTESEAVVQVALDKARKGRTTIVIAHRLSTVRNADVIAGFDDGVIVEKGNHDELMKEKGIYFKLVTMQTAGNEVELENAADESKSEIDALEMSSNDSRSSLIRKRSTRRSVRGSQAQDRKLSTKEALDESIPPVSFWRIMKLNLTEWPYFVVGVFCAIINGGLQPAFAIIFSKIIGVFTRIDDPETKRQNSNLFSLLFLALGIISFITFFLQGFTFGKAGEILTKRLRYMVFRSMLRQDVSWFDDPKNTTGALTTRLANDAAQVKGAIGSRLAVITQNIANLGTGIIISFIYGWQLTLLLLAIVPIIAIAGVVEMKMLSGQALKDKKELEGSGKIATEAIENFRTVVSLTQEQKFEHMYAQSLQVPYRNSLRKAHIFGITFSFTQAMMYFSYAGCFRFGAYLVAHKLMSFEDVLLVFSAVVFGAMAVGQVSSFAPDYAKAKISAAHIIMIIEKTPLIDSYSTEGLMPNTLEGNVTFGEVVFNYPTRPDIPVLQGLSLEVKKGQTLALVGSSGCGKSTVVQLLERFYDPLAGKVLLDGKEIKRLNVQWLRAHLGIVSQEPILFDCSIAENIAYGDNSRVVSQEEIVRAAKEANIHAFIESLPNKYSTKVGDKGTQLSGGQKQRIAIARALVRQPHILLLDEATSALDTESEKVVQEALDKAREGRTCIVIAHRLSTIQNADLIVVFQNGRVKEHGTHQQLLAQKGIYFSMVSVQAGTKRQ

`CNC(=O)CN1CCC(Oc2cc3c(Nc4cccc(Cl)c4F)ncnc3cc2OC)CC1` [sapitinib] showed an EC50 of 5.3 µM.
